Tests used:
[1] = molecular target: Syk (356-635 amino acids) catalytic domain (Homo sapiens (Human), UniProt P43405); assay: Inhibition of enzymatic Syk kinase activity (radiometric); format: biochemical; details: read-out: IC50 Syk
Outline: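 Radiometric filter-binding format: 32P transfer from γ-32P-ATP onto pG4T, scintillation-counted after acid washes of P81 paper. Syk kinase domain (356-635), 0.035–7.5 ng per reaction, was exposed to compound for 30 minutes at room temperature before a 10-minute, 30° C. reaction with ATP (100 μM stock). Inhibition derived from counts with versus without compound.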

JAK2 = JAK2 (Homo sapiens (Human), UniProt O60674); assay: Inhibition of enzymatic JAK2 kinase activity (TR-FRET); format: biochemical; details: read-out: IC50 JAK
Outline: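 TR-FRET read-out (Eu antibody donor, Ulight poly Glu-Tyr acceptor, 665/615 nm ratio) after a 60 min RT kinase reaction with ATP, begun following 30 min compound–enzyme preincubation. Stopped by EDTA; inhibition expressed as 100 minus % activity of positive control.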

Sequence of JAK2 (O60674 808-1132): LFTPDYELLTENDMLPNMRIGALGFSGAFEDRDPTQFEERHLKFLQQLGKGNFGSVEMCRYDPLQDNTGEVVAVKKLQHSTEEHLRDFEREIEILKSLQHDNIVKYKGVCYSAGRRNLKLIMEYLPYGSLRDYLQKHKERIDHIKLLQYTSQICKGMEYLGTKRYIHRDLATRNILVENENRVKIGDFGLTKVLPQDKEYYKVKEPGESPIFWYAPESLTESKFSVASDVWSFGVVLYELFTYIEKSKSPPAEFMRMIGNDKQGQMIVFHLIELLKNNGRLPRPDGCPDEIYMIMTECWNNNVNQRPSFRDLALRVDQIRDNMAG

IC50 [1]	IC50 (JAK2)	SMILES
< 50 nM	< 10 nM	O=C(O)C1CCN(c2ccc(Nc3nc(-c4ccccc4)nc4cn[nH]c(=O)c34)cc2)CC1 [Example 13, 1-(4-(5-oxo-2-phenyl-5,6-dihydropyrimido[4,5-d]pyridazin-4-ylamino)phenyl)piperidine-4-carboxylic acid]
< 50 nM	< 50 nM	Cl.O=c1[nH]ncc2nc(-c3ccccc3)nc(Nc3ccc(CN4CCNCC4)cc3)c12 [Example 7, 2-phenyl-4-(4-(piperazin-1-ylmethyl)phenylamino)pyrimido[4,5-d]pyridazin-5(6H)-one hydrochloride]
< 10 nM	< 10 nM	O=C(O)C1CC12CCN(c1ccc(Nc3nc(N4CCCCCC4)nc4cn[nH]c(=O)c34)cc1)CC2 (centres unmarked) [Example 62, 6-(4-((2-(azepan-1-yl)-5-oxo-5,6-dihydropyrimido[4,5-d]pyridazin-4-yl)amino)phenyl)-6-azaspiro[2.5]octane-1-carboxylic acid]
< 50 nM	< 10 nM	O=C(O)C1CC12CCN(c1ccc(Nc3nc(-c4ccccc4)nc4cn[nH]c(=O)c34)cc1)CC2 (centres unmarked) [Example 19, 6-(4-(5-oxo-2-phenyl-5,6-dihydropyrimido[4,5-d]pyridazin-4-ylamino)phenyl)-6-azaspiro[2.5]octane-1-carboxylic acid]

Second part, the molecule before the results:

SMILES	IC50 [1]	IC50 (JAK2)
N#CCC1CCN(c2nc(Nc3ccc(N4CCN(CCO)CC4)cc3)c3c(=O)[nH]ncc3n2)CC1 [Example 191, 2-(1-(4-((4-(4-(2-hydroxyethyl)piperazin-1-yl)phenyl)amino)-5-oxo-5,6-dihydropyrimido[4,5-d]pyridazin-2-yl)piperidin-4-yl)acetonitrile]	< 10 nM	< 10 nM
O=C(O)CC1CCN(c2ccc(Nc3nc(N4CCCCCC4)nc4cn[nH]c(=O)c34)cn2)CC1 [Example 108, 2-(1-(5-((2-(azepan-1-yl)-5-oxo-5,6-dihydropyrimido[4,5-d]pyridazin-4-yl)amino)pyridin-2-yl)piperidin-4-yl) acetic acid]	< 10 nM	< 10 nM
N#CCC1CCN(c2nc(Nc3ccc(N4CCC(O)CC4)cc3)c3c(=O)[nH]ncc3n2)CC1 [Example 189, 2-(1-(4-((4-(4-hydroxypiperidin-1-yl)phenyl)amino)-5-oxo-5,6-dihydropyrimido[4,5-d]pyridazin-2-yl)piperidin-4-yl)acetonitrile]	< 10 nM	< 50 nM

— patent US10183944B2 (Asana Biosciences, LLC, priority 2011, dated 2019)
